These results are taken from patent publication US20130345214A1, “Lipoxygenase Inhibitors” (SRI International, Inc., priority 2011, published 2013).

“Also recorded” adds a separate entry of the source.

Data set [1] has as its target kinase targets, including Akt(1,2,3), PI3K, and PDK1. As to the kind of experiment: kinase panel screening. It counts as biochemical. As to conditions: broad selection of kinase targets incl. Akt(1,2,3).
Data set [2] can be described thus: glucose metabolism and body weight in mice after oral treatment. It counts as in vivo.
In the next data set the target is T1, human 12-LOX (Homo sapiens, UniProt P18054).
T1 construct: ferric oxidation of xylenol orange from arachidonic acid in human blood platelets; endogenous in cells; host or cells: human blood platelets
T1 sequence (P18054 1-663): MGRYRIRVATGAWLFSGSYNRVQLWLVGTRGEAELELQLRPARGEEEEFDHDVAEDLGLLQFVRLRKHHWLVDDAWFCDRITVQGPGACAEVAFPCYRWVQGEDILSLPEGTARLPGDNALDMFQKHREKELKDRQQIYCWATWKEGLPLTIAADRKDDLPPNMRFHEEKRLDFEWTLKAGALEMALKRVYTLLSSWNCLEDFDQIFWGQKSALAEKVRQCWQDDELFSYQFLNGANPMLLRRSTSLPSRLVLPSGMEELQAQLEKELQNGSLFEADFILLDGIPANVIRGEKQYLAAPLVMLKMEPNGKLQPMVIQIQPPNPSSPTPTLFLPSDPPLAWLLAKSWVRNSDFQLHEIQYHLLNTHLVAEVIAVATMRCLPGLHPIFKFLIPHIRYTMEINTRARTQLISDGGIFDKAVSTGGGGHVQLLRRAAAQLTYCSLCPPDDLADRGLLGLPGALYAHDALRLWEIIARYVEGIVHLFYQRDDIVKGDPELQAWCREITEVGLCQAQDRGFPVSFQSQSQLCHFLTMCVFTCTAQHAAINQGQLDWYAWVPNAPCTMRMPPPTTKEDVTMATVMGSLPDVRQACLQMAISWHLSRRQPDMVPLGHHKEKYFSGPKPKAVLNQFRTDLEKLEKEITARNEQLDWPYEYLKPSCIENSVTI
As to the kind of experiment: colorimetric platelet 12-LOX activity assay (ferric oxidation of xylenol orange, human blood platelets). It counts as cell-based. An excerpt:
(§1) Table 3 provides results for exemplary subject bisindole compounds on 5-LOX, 12-LOX and 15-LOX.

The target in the next data set is T2, COX-2 (Homo sapiens, UniProt P35354).
T2 sequence (P35354 18-604): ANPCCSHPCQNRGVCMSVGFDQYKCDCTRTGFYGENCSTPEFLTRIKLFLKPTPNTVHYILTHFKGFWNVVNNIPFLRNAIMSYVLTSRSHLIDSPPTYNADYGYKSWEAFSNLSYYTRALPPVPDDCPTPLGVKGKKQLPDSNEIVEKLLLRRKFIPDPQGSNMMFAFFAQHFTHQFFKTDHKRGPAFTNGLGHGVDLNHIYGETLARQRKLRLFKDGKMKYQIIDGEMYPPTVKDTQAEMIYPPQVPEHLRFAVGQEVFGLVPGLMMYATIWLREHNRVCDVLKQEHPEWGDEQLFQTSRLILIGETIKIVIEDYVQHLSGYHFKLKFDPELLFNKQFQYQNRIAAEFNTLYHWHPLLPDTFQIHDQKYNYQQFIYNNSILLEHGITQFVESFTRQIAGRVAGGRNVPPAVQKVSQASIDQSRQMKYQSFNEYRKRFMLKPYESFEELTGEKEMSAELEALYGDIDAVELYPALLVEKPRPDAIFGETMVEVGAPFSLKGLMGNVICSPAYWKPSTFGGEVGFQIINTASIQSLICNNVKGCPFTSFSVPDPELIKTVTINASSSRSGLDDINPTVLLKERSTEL
As to the kind of experiment: effect on cyclooxygenase COX-2 activity. It counts as biochemical.

The target in another data set is COX-1 (Homo sapiens, UniProt P23219). As to the kind of experiment: effect on cyclooxygenase COX-1 activity. It counts as biochemical.
COX-1, sequence (P23219 24-599): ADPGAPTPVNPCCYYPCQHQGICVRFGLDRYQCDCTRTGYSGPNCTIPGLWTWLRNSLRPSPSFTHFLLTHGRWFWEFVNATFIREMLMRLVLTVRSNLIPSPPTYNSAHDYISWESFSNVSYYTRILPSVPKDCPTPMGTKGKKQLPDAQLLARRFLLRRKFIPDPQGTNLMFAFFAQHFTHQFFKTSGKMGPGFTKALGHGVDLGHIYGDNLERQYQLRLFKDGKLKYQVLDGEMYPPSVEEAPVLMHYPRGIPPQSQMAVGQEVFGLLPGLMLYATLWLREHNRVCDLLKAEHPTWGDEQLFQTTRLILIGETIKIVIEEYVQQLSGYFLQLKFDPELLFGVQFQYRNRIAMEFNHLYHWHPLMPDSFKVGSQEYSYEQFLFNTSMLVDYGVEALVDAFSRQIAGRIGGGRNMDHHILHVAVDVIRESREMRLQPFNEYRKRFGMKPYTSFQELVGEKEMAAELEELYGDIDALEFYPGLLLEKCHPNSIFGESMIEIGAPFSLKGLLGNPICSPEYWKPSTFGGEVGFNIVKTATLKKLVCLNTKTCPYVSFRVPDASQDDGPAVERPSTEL
The target in data set [3] is T3, 5-LOX (Homo sapiens, UniProt P09917).
T3 sequence (P09917 1-674): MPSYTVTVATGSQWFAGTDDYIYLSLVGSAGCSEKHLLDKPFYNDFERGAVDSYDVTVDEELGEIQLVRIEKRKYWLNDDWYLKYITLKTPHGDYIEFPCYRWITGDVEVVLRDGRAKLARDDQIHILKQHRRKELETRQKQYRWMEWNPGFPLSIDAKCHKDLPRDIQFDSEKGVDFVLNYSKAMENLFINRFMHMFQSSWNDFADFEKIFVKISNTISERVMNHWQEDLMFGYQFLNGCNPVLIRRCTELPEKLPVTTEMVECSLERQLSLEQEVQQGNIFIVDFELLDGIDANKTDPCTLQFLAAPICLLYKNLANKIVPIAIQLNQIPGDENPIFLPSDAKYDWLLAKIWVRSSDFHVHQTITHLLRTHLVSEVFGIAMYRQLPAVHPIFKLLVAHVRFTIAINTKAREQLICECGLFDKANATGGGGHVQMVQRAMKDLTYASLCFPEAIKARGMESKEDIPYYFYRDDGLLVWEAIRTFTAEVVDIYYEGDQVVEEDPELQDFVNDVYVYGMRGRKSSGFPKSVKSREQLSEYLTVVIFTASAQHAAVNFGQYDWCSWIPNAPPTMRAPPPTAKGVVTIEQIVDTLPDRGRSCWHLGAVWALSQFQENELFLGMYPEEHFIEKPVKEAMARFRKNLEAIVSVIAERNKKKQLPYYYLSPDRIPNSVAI
As to the kind of experiment: enzyme panel screening, 5-LOX. The format is biochemical.

A further data set has as its system Akt and ERK activation. As to the kind of experiment: Akt and ERK activation. It counts as cell-based. As to conditions: by inhibiting 12-LOX mediated metabolism of arachidonic acid.
Another data set deals with 15-LOX. Briefly: enzyme panel screening, 15-LOX. The format is biochemical.
In the next data set the target is T4, 15-LOX-2 (Homo sapiens, UniProt O15296).
T4 sequence (O15296 1-676): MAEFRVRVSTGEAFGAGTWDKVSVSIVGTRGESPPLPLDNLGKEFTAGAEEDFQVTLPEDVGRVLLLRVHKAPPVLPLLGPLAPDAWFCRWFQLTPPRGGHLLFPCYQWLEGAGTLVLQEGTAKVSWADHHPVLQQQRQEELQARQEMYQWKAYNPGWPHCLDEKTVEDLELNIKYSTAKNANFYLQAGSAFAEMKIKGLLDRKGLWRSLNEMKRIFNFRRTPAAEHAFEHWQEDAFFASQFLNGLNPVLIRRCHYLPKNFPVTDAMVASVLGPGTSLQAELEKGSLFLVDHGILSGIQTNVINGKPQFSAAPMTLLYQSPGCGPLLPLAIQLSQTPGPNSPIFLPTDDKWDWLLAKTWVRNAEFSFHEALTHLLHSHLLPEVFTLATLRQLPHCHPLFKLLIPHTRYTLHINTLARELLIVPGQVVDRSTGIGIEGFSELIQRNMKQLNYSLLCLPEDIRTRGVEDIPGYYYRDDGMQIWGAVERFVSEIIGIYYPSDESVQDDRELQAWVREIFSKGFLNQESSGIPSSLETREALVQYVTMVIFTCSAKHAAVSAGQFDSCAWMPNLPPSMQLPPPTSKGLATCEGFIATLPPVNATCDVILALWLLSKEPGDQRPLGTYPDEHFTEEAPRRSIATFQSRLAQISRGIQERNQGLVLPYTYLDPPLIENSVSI
As to the kind of experiment: in vitro 15-LOX-2 inhibition (Table 3). The format is biochemical.
Source text: as §1

Data set [4] deals with T3, 5-LOX. As to the kind of experiment: fluorescence-based enzyme assay of human 5-LOX (Table 3). It counts as biochemical. The settings on record: 3 μM.
Source text: as §1

For the molecule `CCOC(=O)c1ccc2[nH]c3c(OC)c4[nH]c5ccc(C(=O)OCC)cc5c4cc3c2c1` [Compound (1)], the kinase inhibition result in [1] is on record as “not a kinase inhibitor”. Moreover, the “effects on glucose metabolism” value in [2] was “no adverse effects on glucose metabolism”. Besides, in data set [2] (oral, 500 mg/kg/day, 14 days), the “effects on body weights” value was “no adverse effects” and the “effects on fasting glucose levels” value is listed as “no adverse effects”. Besides, on human 12-LOX (10 uM, human blood platelets, cell-based assay), the “12-LOX enzyme activity inhibition” value is recorded as “inhibit 12-LOX enzyme activity”. On human 12-LOX (cell-based enzyme assay), this molecule had an IC50 of 0.01 µM. For the same molecule, the “selectivity for 12-LOX” value on human 12-LOX (versus panels of kinases and enzymes incl. 5-LOX and 15-LOX) was “selective for 12-LOX; also recorded: selectively inhibits 12-lipoxygenase enzyme activity; also recorded: selectively inhibits human 12-LOX”. Moreover, the “effect on COX-2 activity” value on COX-2 was “does not significantly affect the activity”. The “effect on COX-1 activity” value at COX-1 is on record as “does not significantly affect the activity”. Moreover, the “effect on 5-LOX activity” value on 5-LOX [3] is recorded as “does not significantly affect the activity”. In addition, the “Akt and ERK activation” value with Akt and ERK activation is “inhibit Akt and ERK activation”. Also, the “effect on 15-LOX activity” value with 15-LOX is “does not significantly affect the activity”.
`Cl.Fc1ccc2[nH]c3c(OCC4CCCN4)c4[nH]c5ccc(F)cc5c4cc3c2c1` (stereo not drawn): the “12-LOX % Inhibition at 3 μM” value at human 12-LOX (3 μM) turned out to be 77%. Further, the “15-LOX-2 % Inhibition at 3 μM” value on 15-LOX-2 (3 µM) was 63%. In addition, the “5-LOX % Inhibition at 3 μM” value at 5-LOX [4] came to 95%.
On to `Clc1ccc2[nH]c3c(OCCCn4cncn4)c4[nH]c5ccc(Cl)cc5c4cc3c2c1` [drawing 8], for which the inhibition at 3 µM against human 12-LOX (3 μM) is 89%; on 15-LOX-2, 25%; at 5-LOX [4], 85%.
For the molecule `CCOC(=O)c1ccc2[nH]c3c(O[C@H]4CCNC4)c4[nH]c5ccc(C(=O)OCC)cc5c4cc3c2c1` [drawing 20], the inhibition at 3 µM on human 12-LOX (3 μM) was 75%; against 15-LOX-2, 10%; against 5-LOX [4], 37%.
The corresponding values for `Fc1ccc2[nH]c3c(OCC4CCCN4)c4[nH]c5ccc(F)cc5c4c(C(F)(F)F)c3c2c1` (stereo not drawn) [drawing 17] are 77%, 17% and 77%.
On to `Fc1ccc2[nH]c3c(OC[C@@H]4C[C@H](F)CN4)c4[nH]c5ccc(F)cc5c4cc3c2c1` [drawing 19], for which the values for the inhibition at 3 µM at human 12-LOX (3 μM), against 15-LOX-2 and against 5-LOX [4] were 87%, 41% and 87%, respectively.
In the case of `Cc1c2[nH]c3ccccc3c2cc2c1[nH]c1ccccc12`, the inhibition at 3 µM amounted to 76% against human 12-LOX (3 μM), 16% against 15-LOX-2 and 52% against 5-LOX [4].
On to `CN(C)CCOc1c2[nH]c3ccc(F)cc3c2c(Cl)c2c1[nH]c1ccc(F)cc12` [drawing 18], for which the inhibition at 3 µM was found to be 85% at human 12-LOX (3 μM), 17% on 15-LOX-2 and 75% at 5-LOX [4].
In the case of `Fc1ccc2[nH]c3c(OCC4CCCN4)c4[nH]c5ccc(F)cc5c4cc3c2c1` (stereo not drawn) [drawing 14], the inhibition at 3 µM against human 12-LOX (3 μM) was 78%; against 15-LOX-2, 61%; on 5-LOX [4] it was 94%.
Take `CN(C)CCOc1c2[nH]c3ccc(F)cc3c2cc2c1[nH]c1ccc(F)cc12` [drawing 7]: the inhibition at 3 µM against human 12-LOX (3 μM) amounted to 78%; on 15-LOX-2 it was 46%; against 5-LOX [4] it was 90%.
